Here are results for six molecules from ChEMBL document CHEMBL1201862, “PubChem BioAssay data set” (2004).

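48-hour exposure; five concentrations; linearly interpolated endpoints. GI50 = concentration required for 50% inhibition of growth.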 Active and inactive are the calls of the source. No stated cut-off is given here; in the data, active = GI50 up to about 1.1 µM and inactive = higher.

Holding throughout (test): inhibition of tumour cell growth, NCI panel, 48 h
The test system of assay [1] is MOLT-4.
For assay [2], the system named is COLO 205.
For assay [3], the system named is OVCAR-4.
For assay [4], the system named is UACC-62.
In assay [5] the test system is UO-31.
Assay [6] concerns SR.
In assay [7] the test system is T47D.
For assay [8], the system named is PC-3.
In assay [9] the test system is K562.
Assay [10] deals with MDA-N.
For assay [11], the system named is SK-MEL-5.
Assay [12] relates to SNB-75.
Assay [13] relates to HCC 2998.
Assay [14] deals with SK-MEL-28.
The subject of assay [15] is MDA-MB-435.
Assay [16] relates to SF-295.
The subject of assay [17] is HOP-62.
The test system of assay [18] is Malme-3M.
In assay [19] the test system is U-251.
The test system of assay [20] is SF-539.

Take `CC(C)(C)NC(NC(C)(C)C)=C(/C=C(/Cl)[N+](=O)[O-])[N+](=O)[O-]`: the GI50 was 48.3 µM (inactive) in assay [1]; 26.4 µM (inactive) in assay [2]; 17.1 µM (inactive) in assay [3]; 42.6 µM (inactive) in [4]; > 100 µM (inactive) in [5]; 32.6 µM (inactive) in assay [6]. Moreover, the GI50 in assay [7] was 68.5 µM (inactive); in assay [8] it was 45.6 µM (inactive); in [9], 55.1 µM (inactive); in assay [10], 26.2 µM (inactive); in assay [11], 44.9 µM (inactive); in assay [12] it was 0.0395 µM (active). Further, the GI50 was 62.1 µM (inactive) in assay [13]; > 100 µM (inactive) in [14]; 19.5 µM (inactive) in assay [15]; > 100 µM (inactive) in [16]; > 100 µM (inactive) in [17]; 10.3 µM (inactive) in [18]. The GI50 in assay [19] is > 100 µM (inactive); in assay [20], 38.3 µM (inactive).

As for `CN(C)CCNC(=O)c1cccc2nc3c4ccccc4c4ccccc4c3nc12`, the GI50 in assay [1] was 0.748 µM (active); in assay [2] it was 3.89 µM (inactive); in assay [3], 1.8 µM (inactive); in [4] it was 2.35 µM (inactive); in assay [5], 9.44 µM (inactive); in assay [6], 0.773 µM (active). The GI50 in assay [7] is 8.13 µM (inactive); in assay [8] it was 1.65 µM (inactive); in assay [9] it was 1.52 µM (inactive); in [10], 1.65 µM (inactive); in assay [11], 3.37 µM (inactive); in assay [12] it was 2.52 µM (inactive). In addition, the GI50 in assay [13] was 5.27 µM (inactive); in assay [14], 1.79 µM (inactive); in assay [15] it was 1.81 µM (inactive); in assay [16] it was 2.16 µM (inactive); in [17] it was 16.2 µM (inactive); in assay [18], 1.8 µM (inactive). In addition, the results for the GI50 in assay [19] and in [20] were 2 µM (inactive) and 1.72 µM (inactive), respectively.

Consider `Cc1ccc(C(=O)C(Cl)C(Cl)c2ccc(C)cc2)cc1` (stereo not given), for which the GI50 in assay [1] is 2.03 µM (inactive); in assay [2] it was 2.07 µM (inactive); in assay [3], 2.33 µM (inactive); in assay [4], 3.67 µM (inactive); in assay [5], 2.06 µM (inactive); in assay [6], 1.82 µM (inactive). The GI50 is 2.08 µM (inactive) in assay [7]; 5 µM (inactive) in assay [8]; 1.49 µM (inactive) in assay [9]; 2.21 µM (inactive) in assay [10]; 2.34 µM (inactive) in [11]; 8.22 µM (inactive) in assay [12]. The GI50 was 2.03 µM (inactive) in assay [13]; 2.68 µM (inactive) in [14]; 2.97 µM (inactive) in assay [15]; 11.4 µM (inactive) in assay [16]; 18.1 µM (inactive) in assay [17]; 15.3 µM (inactive) in [18]. Further, the values for the GI50 in [19] and in assay [20] were 3.46 µM (inactive) and 2.49 µM (inactive), respectively.

For `CCOC(=O)NC(Nc1ncn(C(NC(=O)OCC)(C(F)(F)F)C(F)(F)F)n1)(C(F)(F)F)C(F)(F)F`, the GI50 was > 100 µM (inactive) in assay [1]; > 100 µM (inactive) in [2]; > 100 µM (inactive) in assay [3]; > 100 µM (inactive) in assay [4]; 12.2 µM (inactive) in [5]; > 100 µM (inactive) in assay [6]. The GI50 in assay [7] is 49 µM (inactive); in assay [8], > 100 µM (inactive); in assay [9], > 100 µM (inactive); in [10] it was > 100 µM (inactive); in [11], > 100 µM (inactive); in [12] it was > 100 µM (inactive). In addition, the GI50 is 29.9 µM (inactive) in assay [13]; > 100 µM (inactive) in [14]; > 100 µM (inactive) in [15]; > 100 µM (inactive) in [16]; > 100 µM (inactive) in assay [17]; > 100 µM (inactive) in assay [18]. The GI50 in [19] and in [20] was > 100 µM (inactive) in each case.

With `COc1cc(C(C[N+](=O)[O-])SC(C)=O)ccc1OCc1ccccc1` (stereo not given), the GI50 in assay [1] is 2.25 µM (inactive); in assay [2], 5.24 µM (inactive); in assay [3] it was 14.4 µM (inactive); in assay [4], 3.09 µM (inactive); in [5], 4.57 µM (inactive); in assay [6] it was 1.79 µM (inactive). In addition, the GI50 is 20.5 µM (inactive) in [7]; 4.47 µM (inactive) in assay [8]; 1.38 µM (inactive) in assay [9]; 2.88 µM (inactive) in assay [10]; 9.04 µM (inactive) in [11]; 11.4 µM (inactive) in assay [12]. The GI50 is 8.45 µM (inactive) in assay [13]; 2.54 µM (inactive) in assay [14]; 3.08 µM (inactive) in assay [15]; 2.9 µM (inactive) in assay [16]; 7.18 µM (inactive) in assay [17]; 12.3 µM (inactive) in assay [18]. The values for the GI50 in [19] and in assay [20] were 6.9 µM (inactive) and 2.48 µM (inactive), respectively.

Take `COc1cccc2c1C(=O)c1c(O)c3c(c(O)c1C2=O)C[C@@](O)(C(=O)CO)CC3OC1CC(N)C(OC2CCCCO2)C(C)O1` (stereo not given in full): the GI50 was 0.0315 µM (active) in [1]; 1.21 µM (inactive) in assay [2]; 0.0366 µM (active) in [3]; 0.918 µM (active) in assay [4]; 0.762 µM (active) in [5]; 0.0314 µM (active) in assay [6]. The GI50 was 0.00871 µM (active) in assay [7]; 0.0461 µM (active) in [8]; 0.646 µM (active) in assay [9]; 0.124 µM (active) in assay [10]; 0.299 µM (active) in assay [11]; 0.417 µM (active) in [12]. Also, the GI50 is 7.19 µM (inactive) in assay [13]; 1.5 µM (inactive) in assay [14]; 0.0807 µM (active) in assay [15]; 0.23 µM (active) in assay [16]; 0.144 µM (active) in assay [17]; 0.664 µM (active) in assay [18]. Further, the GI50 in [19] was 0.402 µM (active); in assay [20], 0.267 µM (active).
